# Laboratory results from BindingDB's records for doi:10.1021/acs.jmedchem.5b01091 (University of Manchester, 2016).
# Assay: Inhibition of NLRP3 in mouse J774 macrophages assessed as reduction in Bacillus anthracis lethal toxin induced cell death
smiles,measurement,value
CC1(C)C(=O)C=C[C@]2(C)[C@H]3CC[C@@]4(C)[C@H](c5ccoc5)OC(=O)[C@H]5O[C@]54[C@]3(C)C=C[C@@H]12,IC50,5 µM
